Data from patent US5322850A, “Antiallergic piperidine derivatives of benzimidazole” (Fabrica Espanola de Productos Quimicos y Farmaceuticos, S.A., priority 1992, dated 1994).
Values joined by “and” are separate entries in the source; they are usually repeats but may differ in a detail not shown here. Equal values may be shown once.

How the values were obtained:
H1 [1] = experiment: H1-antihistaminic activity in vivo: vascular permeability increase induced by histamine in rats; parameters: species or system rat (female Wistar)
Protocol: H1 -antihistaminic activity in vivo: Vascular permeability increase induced by histamine in rats.
Female Wistar rats (120-150 g) were used. They were fasted for 18 hours prior to the assay. […] 30 min after the dye injection, animals were sacrificed and the skin was removed. The extravasated dye sites were extracted with formamide and the dye spectrophotometrically evaluated.

CNS = experiment: Preliminary study similar to Irwin's test in mice: effect on CNS; format: in vivo; parameters: key: --: If no effects were detected, no figures are shown
Protocol: A preliminary study similar to Irwins's test in mice was carried out at doses of 100 and 300 mg/kg at 1, 2, 3, 4 and 24 hours after the treatment. As reference ketotifene was used.

H1 [2] = biological target: H1 (Cavia porcellus, UniProt P31389); experiment: H1-antihistaminic activity in vitro: histamine-induced contractions of isolated guinea-pig ileum; conditions: pH 7.4, 37° C., 20 min after antagonist, (n) given
Protocol: H1 -antihistaminic activity in vitro: Histamine-induced contractions of isolated guinea-pig ileum.
Distal ileum was obtained from male albino guinea pig (300-500 g). All animals were fasted overnight and killed by cervical dislocation and then exsanguinated. […] The tissue was washed by upward displacement of the bathing fluid. With an effective 1.2 g loading tension, the ileum was kept for 45 min (stabilization period). An accumulative dose-response curve for histamine was isotonically recorded with increasing concentrations and the tissue, after washing with Tyrode solution, was allowed to equilibrate. Twenty minutes later a second concentration-response curve was obtained previous addition of different concentrations of antagonist drugs. The results were calculated from the concentration-response curves for histamine at each drug concentration. All the concentrations were tested 2 to 4 times.

[3] = tested on: homologous passive cutaneous anaphylaxis (PCA); experiment: Antiallergic activity in vivo: vascular permeability increase induced by 48 hours homologous passive cutaneous anaphylaxis (PCA) in rats; parameters: species or system rat (female Wistar)
Protocol: Antiallergic activity in vivo: Vascular permeability increase induced by 48 hours homologous passive cutaneous anaphylaxis (PCA) in rats. Female Wistar rats (120-150 g) were used. They were sensitized passively by intradermic injections of homologous ovoalbumin antiserum on both sides of the middle shaved-back line of the rat. Forty-eight hours later each test compound was administered orally at doses of 1 mg/kg (5 mg/kg when R^1 is a methyl group) and 1 h later PCA reaction was induced by iv injection of Evans blue solution and ovoalbumin in PSS solution. The animals were sacrificed 30 minutes after the dye injection and the skin was removed. The extravasated dye sites were extracted with formamide and the dye spectrophotometrically evaluated.

[4] = rat, oral, 1 mg/kg, 1 hour before histamine
[5] = 100 mg/kg, 1, 2, 3, 4 and 24 hours
[6] = 300 mg/kg, 1, 2, 3, 4 and 24 hours
[7] = rat, oral, 1 mg/kg, 1 h before PCA reaction

Sequence of H1 (Cavia porcellus, UniProt P31389) (P31389 whole entry): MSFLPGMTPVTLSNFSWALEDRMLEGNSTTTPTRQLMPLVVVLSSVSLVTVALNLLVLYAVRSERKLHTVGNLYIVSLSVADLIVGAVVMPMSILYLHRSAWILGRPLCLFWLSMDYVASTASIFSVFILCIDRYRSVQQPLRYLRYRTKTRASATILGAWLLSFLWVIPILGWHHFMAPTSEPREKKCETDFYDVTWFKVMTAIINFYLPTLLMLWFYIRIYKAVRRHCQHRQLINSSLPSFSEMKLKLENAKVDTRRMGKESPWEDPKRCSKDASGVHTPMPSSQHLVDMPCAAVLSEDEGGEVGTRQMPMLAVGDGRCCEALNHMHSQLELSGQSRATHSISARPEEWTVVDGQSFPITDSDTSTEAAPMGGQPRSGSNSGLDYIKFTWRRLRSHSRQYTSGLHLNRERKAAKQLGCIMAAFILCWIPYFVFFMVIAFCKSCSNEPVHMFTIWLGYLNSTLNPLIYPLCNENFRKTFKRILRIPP

SMILES | Inhibition of the increase of vascular permeability by Histamine (H1 [1]; [4]) | Convulsions (CNS; [5]) | Death (CNS; [5]) | Hypothermia (CNS; [5]) | Loss of pinneal reflex (CNS; [5]) | Loss of right-time reflex (CNS; [5]) | Palpebral Ptosis (CNS; [5]) | Spontaneous Activity decrease (CNS; [5]) | Convulsions (CNS; [6]) | Death (CNS; [6]) | Hypothermia (CNS; [6]) | Loss of pinneal reflex (CNS; [6]) | Loss of right-time reflex (CNS; [6]) | Palpebral Ptosis (CNS; [6]) | Spontaneous Activity decrease (CNS; [6]) | pD'2 (H1 [2]) | Inhibition of the increase of vascular permeability by P.C.A. [3, 7] | Inhibition of the increase of vascular permeability by Histamine (H1 [1]; po, 5 mg/kg) | Inhibition of the increase of vascular permeability by P.C.A. ([3]; po, 5 mg/kg) | Spontaneous Activity decrease (CNS; 300 mg/kg, 1, 2, 3, 4 and 24 hours, 300 mg/kg)
CCOCCn1c(C2CCN(Cc3ccc(C(C)(C)C)cc3)CC2)nc2ccccc21 [1 CH2 CH3] | 70% | -- | -- | -- | -- | -- | -- | -- | 4/4 | -- | -- | -- | -- | -- | 4/4 | 7.08 | 47% |  |  | 
COCCn1c(C2CCN(Cc3ccc(C(C)(C)C)cc3)CC2)nc2ccccc21 [1 CH3, 2-[1-((4-(1,1-dimethylethyl)phenyl)methyl)piperidine-4-yl]-1-(2-methoxyethyl)-1H-benzimidazole] |  | -- | -- | 2/4 | -- | -- | -- | 3/4 | 4/4 | 4/4 | 4/4 | 4/4 | 4/4 | 4/4 | 4/4 | 6.75 |  | 70% | 70% | 
CC(C)OCCn1c(C2CCN(Cc3ccc(C(C)(C)C)cc3)CC2)nc2ccccc21 [1 CH(CH3)2, 2-[1-((4-(1,1-dimethylethyl)phenyl)methyl)piperidin-4-yl]-1-[(2-(1-methylethoxy)ethyl)]-1H-benzimidazole] | 50% | -- | -- | -- | -- | -- | -- | -- | -- | -- | -- | -- | -- | -- | -- | 7.30 | 40% |  |  | 
CCOCCn1c(C2CCN(CCc3ccc(C(C)(C)C)cc3)CC2)nc2ccccc21 [2 CH2 CH3, 2-[1-(2-(4-(1,1-dimethylethyl)-phenyl)ethyl)piperidin-4-yl]-1-(2-ethoxyethyl)-1H-benzimidazole] | 60% | -- | -- | -- | -- | -- | -- | -- | -- | -- | -- | -- | -- | -- |  | 7.52 | 40% |  |  | -- and 2/4
CC(C)OCCn1c(C2CCN(CCc3ccc(C(C)(C)C)cc3)CC2)nc2ccccc21 [2 CH(CH3)2, 2-[1-(2-(4-(1,1-dimethylethyl)-phenyl)ethyl)piperidin-4-yl]-1-[2-(1-methylethoxy)ethyl]-1H-benzimidazole] | 25% |  |  |  |  |  |  |  |  |  |  |  |  |  |  | 7.00 | 30% |  |  | 
COc1ccc(CCN2CCC(Nc3nc4ccccc4n3Cc3ccc(F)cc3)CC2)cc1 [Astemizole, reference compound] |  |  |  |  |  |  |  |  |  |  |  |  |  |  |  |  | 38% |  |  | 
CN1CCC(=C2c3ccccc3CC(=O)c3sccc32)CC1 [Ketotifene, reference compound] |  | -- | -- | -- | -- | -- | -- | -- | -- | -- | 1/4 | -- | 1/4 | 1/4 | 2/4 |  |  |  |  | 
CC(C)(C)c1ccc(C(O)CCCN2CCC(C(O)(c3ccccc3)c3ccccc3)CC2)cc1 (stereo not shown) [Terfenadine, reference compound] | 20% |  |  |  |  |  |  |  |  |  |  |  |  |  |  |  | 37% |  |  | 
